The record followed here is patent US7157457B2, “Compounds useful in the treatment of inflammatory diseases” (Glaxo Group Limited, priority 2000, dated 2007).

Assay [1] addresses T1, CCR-3 (Homo sapiens, UniProt P51677).
T1 sequence (P51677 1-355): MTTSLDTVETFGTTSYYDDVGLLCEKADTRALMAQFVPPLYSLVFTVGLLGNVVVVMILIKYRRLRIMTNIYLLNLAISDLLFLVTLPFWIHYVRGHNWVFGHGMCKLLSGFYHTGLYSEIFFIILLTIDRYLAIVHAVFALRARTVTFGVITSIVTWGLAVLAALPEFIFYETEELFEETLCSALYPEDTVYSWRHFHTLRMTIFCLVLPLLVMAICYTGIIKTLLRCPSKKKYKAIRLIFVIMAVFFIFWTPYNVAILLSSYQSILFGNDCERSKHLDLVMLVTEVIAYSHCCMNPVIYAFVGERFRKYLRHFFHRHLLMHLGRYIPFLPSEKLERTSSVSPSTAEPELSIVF
Nature of the assay: Eosinophil chemotaxis assay (eotaxin-induced). The format is cell-based. Also on record: Eosinophils were purified from human peripheral blood; endogenous in cells; host or cells: human peripheral blood eosinophils. The following applies: functional pKi; eosinophils from human peripheral blood; agonist eotaxin; read-out: CCR-3 Eosinophil Chemotaxis Assay (fpKi) (converted). The procedure:
(b) Eosinophil Chemotaxis Assay.
Compounds were evaluated for their inhibitory effect on eosinophil chemotaxis. Eosinophils were purified from human peripheral blood by standard CD16 cell depletion using a Miltenyi cell separation column and a magnetic Super Macs magnet as previously described (Motegi & Kita, 1998; J. Immunology. 161:4340–6). Cells were re-suspended in RPMI 1640/10% FCS solution and incubated with calcein-AM (Molecular Probes) at 37° C. for 30 mins. Following incubation, the eosinophils were centrifuged at 400 g for 5 min and re-suspended in RPMI/FCS at 2.2 million/ml. Cells were then incubated in the presence of increasing concentration of compounds (1 pM to 30 μM) at 37° C. for 30 mins. For control responses cells were incubated with RPMI/FCS only. The agonist eotaxin (either a concentration response curve or for the functional inhibition curves an EC80 concentration) was added to the lower chamber of a 96 well chemotaxis plate (5 μm filter: Receptor Technologies). Eosinophils (50 μl of 2 million/ml cells) were added to the top chamber of the filter plate and incubated at 37° C. for 45 mins. Cells remaining on top of the chemotaxis filter were removed and the number of eosinophils which had migrated were quantified by reading the plate on a fluorescent plate reader. Inhibition curves for the effect of compounds on eosinophil chemotaxis were analysed by fitting the data with a four parameter logistic equation. Functional pKi values (fpKi) were generated using the equation below (Lazareno & Birdsall, 1995. Br. J. Pharmacol 109: 1110–9).

Assay [2] has as its target T1, CCR-3. Nature of the assay: CCR-3 competition binding SPA ([125I]eotaxin). Also on record: expressed in transfected cells. The following applies: inhibition of [125I]eotaxin binding to membranes of K562 cells stably expressing CCR-3; mean of at least two experiments; read-out: CCR-3 Binding Assay (pIC50) (converted). The procedure: A CCR-3 competition binding SPA (scintillation proximity assay) was used to assess the affinity of novel compounds for CCR-3. Membranes prepared from K562 cells stably expressing CCR-3 (2.5 μg/well) were mixed with 0.25 mg/well wheat-germ agglutinin SPA beads (Amersham) and incubated in binding buffer (HEPES 50 mM, CaCl2 1 mM, MgCl2 5 mM, 0.5% BSA) at 4° C. for 1.5 hr. Following incubation, 20 pM of [^125I] eotaxin (Amersham) and increasing concentrations of compound (1 pM to 30 μM) were added and incubated in a 96 well plate for 2 hr at 22° C. then counted on a Microbeta plate counter. The total assay volume was 100 μl. Competition binding data were analysed by fitting the data with a four parameter logistic equation. Data are presented as the mean pIC50 values (negative logarithm of the concentration of compound which inhibits [^125I]eotaxin binding by 50%) from at least two experiments.

Assay [3] deals with ovalbumin sensitised guinea pigs. Nature of the assay: Guinea-pig ovalbumin model: eosinophil infiltration and hyper-reactivity. Particulars: 0.2–20 mg/kg, oral route. The format is in vivo. As for the experimental part:
(c) Guinea-pig Ovalbumin Model
Inhibition of Eosinophil Infiltration and Hyper-Reactivity in the Guinea Pig
In a method based on that described by Danahay et al., 1997, ovalbumin sensitised guinea pigs were dosed with mepyramine (30 mg kg^−1 ip) to protect against anaphylactic bronchospasm. Test compounds, dissolved in 10% DMSO and 90% PEG200, were given by the oral route, 30 minutes before ovalbumin challenge (10 minutes breathing of an aerosol generated from a 0.5% solution of ovalbumin). Hyper-reactivity of the airways to the thromboxane mimetic U46619, was measured 24 hours after ovalbumin challenge in unrestrained animals using a whole body plethysmograph (Buxco Ltd., USA). The guinea pigs were then sacrificed and the lungs lavaged. Total and differential leukocyte counts were then obtained for the bronchoalveolar lavage fluid and the percentage reduction in eosinophil accumulation determined (Sanjar et al., 1992). Data was presented as the inhibitory effect of the specified dose expressed as a percentage of the vehicle control response.

Where a name gives a salt, the structure may show the parent alone.

On to `COc1ccc(CNC(=O)NCC2CN(Cc3ccc(Cl)c(Cl)c3)CCO2)cc1` (stereo not shown) [Example 2, N-{[4-(3,4-Dichlorobenzyl)morpholin-2-yl]methyl}-N′-(4-methoxybenzyl)urea], for which the Ki in assay [1] was 49 nM.
Take `Cc1ccc(CNC(=O)NCC2CN(Cc3ccc(Cl)c(Cl)c3)CCO2)cc1` (stereo not shown) [Example 3, N-{[4-(3,4-Dichlorobenzyl)morpholin-2-yl]methyl}-N′-(4-methylbenzyl)urea]: in assay [2], the IC50 is 69.2 nM.
In the case of `Cc1cccc(CNC(=O)NCC2CN(Cc3ccc(Cl)c(Cl)c3)CCO2)c1` (stereo not shown) [Example 4, N-{[4-(3,4-Dichlorobenzyl)morpholin-2-yl]methyl}-N′-(3-methylbenzyl)urea], the Ki in assay [1] is 44.7 nM.
Turning to `N#Cc1cccc(NC(=O)NCC2CN(Cc3ccc(Cl)c(Cl)c3)CCO2)c1` (stereo not shown) [Example 5, N-(3-Cyanophenyl)-N′-{[4-(3,4-dichlorobenzyl)morpholin-2-yl]methyl}urea], the IC50 in assay [2] was 117 nM.
Take `O=C(NCCc1ccccc1)NCC1CN(Cc2ccc(Cl)c(Cl)c2)CCO1` (stereo not shown) [Example 8, N-{[4-(3,4-Dichlorobenzyl)morpholin-2-yl]methyl}-N′-(2-phenylethyl)urea]: the Ki in assay [1] was 115 nM.
As for `O=C(NCC1CN(Cc2ccc(Cl)c(Cl)c2)CCO1)Nc1cccc(Cl)c1` (stereo not shown) [Example 13, N-(3-Chlorophenyl)-N′-{[4-(3,4-dichlorobenzyl)morpholin-2-yl]methyl}urea], the Ki in assay [1] is 407 nM.
Turning to `O=C(NCC1CN(Cc2ccc(Cl)c(Cl)c2)CCO1)Nc1ccc(Cl)cc1` (stereo not shown) [Example 14, N-(4-Chlorophenyl)-N′-{[4-(3,4-dichlorobenzyl)morpholin-2-yl]methyl}urea], the “inhibition of lung eosinophilia” value in assay [3] was “showed inhibition”. Further, in assay [3] (hyper-reactivity to U46619), the “inhibition of bronchial hyperreactivity” value was “showed inhibition”. Besides, the IC50 in assay [2] is 661 nM.
Consider `O=C(NCC1CN(Cc2ccc(Cl)c(Cl)c2)CCO1)Nc1ccc(OC(F)F)cc1` (stereo not shown) [Example 16, N-{[4-(3,4-Dichlorobenzyl)morpholin-2-yl]methyl}-N′-[4-(difluoromethoxy)phenyl]urea], for which the IC50 in assay [2] was 741 nM.
With `CSc1cccc(NC(=O)NCC2CN(Cc3ccc(Cl)c(Cl)c3)CCO2)c1` (stereo not shown) [Example 18, N-{[4-(3,4-Dichlorobenzyl)morpholin-2-yl]methyl}-N′-[3-(methylthio)phenyl]urea], the Ki in assay [1] was 1450 nM.
In the case of `O=C(NCC1CN(Cc2cccc3ccccc23)CCO1)Nc1ccc(Cl)cc1` (stereo not shown) [Example 19, N-(4-Chlorophenyl)-N′-{[4-(1 naphthylmethyl)morpholin-2-yl]methyl}urea], the Ki in assay [1] was 1100 nM.
For the molecule `O=C(NCC1CN(Cc2cccc(I)c2)CCO1)Nc1ccc(Cl)cc1` (stereo not shown) [Example 21], the IC50 in assay [2] was 955 nM.
The same measure, in the same setting: the result for `O=C(NCC1CN(Cc2ccc(Cl)c(Cl)c2)CCO1)Nc1cccc(C(F)(F)F)c1` (stereo not shown) [Example 22, N-{[4-(3,4-Dichlorobenzyl)morpholin-2-yl]methyl}-N′-[3-(trifluoromethyl)phenyl]urea] reads 955 nM.
In the case of `O=C(NCC1CN(Cc2ccc3ccccc3c2)CCO1)Nc1ccc(Cl)cc1` (stereo not shown) [Example 23, N-(4-Chlorophenyl)-N′-{[4-(2-naphthylmethyl)Morpholin-2-yl]methyl}urea], the IC50 in assay [2] is 832 nM.
Still for that read-out and setting: the same measure for `N#Cc1ccc(NC(=O)NCC2CN(Cc3ccc(Cl)c(Cl)c3)CCO2)cc1` (stereo not shown) [Example 25, N-(4-Cyanophenyl)-N′-{[4-(3,4-dichlorobenzyl)morpholin-2-yl]methyl}urea]: 1000 nM.
For the molecule `O=C(NCC1CN(Cc2cccc(Cl)c2)CCO1)Nc1ccc(Cl)cc1` (stereo not shown) [Example 26, N-{[4-(3-Chlorobenzyl)morpholin-2-yl]methyl}-N′-(4-chlorophenyl)urea], the Ki in assay [1] is 1410 nM.
Turning to `O=C(NCC1CN(Cc2ccc(Cl)c(Cl)c2)CCO1)Nc1ccc(SC(F)(F)F)cc1` (stereo not shown) [Example 34, N-{[4-(3,4-Dichlorobenzyl)morpholin-2-yl]methyl}-N′-{4-[(trifluoromethyl)thio]phenyl}urea], in assay [2], the IC50 is 2000 nM.
Still for that read-out and setting: the result for `O=C(NCC1CN(Cc2ccc(Cl)s2)CCO1)Nc1ccc(Cl)cc1` (stereo not shown) [Example 37, N-(4-Chlorophenyl)-N′-({4-[(5-chlorothien-2-yl)methyl]morpholin-2-yl}methyl)urea] reads 3800 nM; that for `C=Cc1ccc(CN2CCOC(CNC(=O)Nc3ccc(Cl)cc3)C2)cc1` (stereo not shown) [Example 38, N-(4-Chlorophenyl)-N′-{[4-(4-vinylbenzyl)morpholin-2-yl]methyl}urea], 1910 nM.
Turning to `CCOC(=O)C(c1ccccc1)N1CCOC(CNC(=O)Nc2ccc(Cl)cc2)C1` (stereo not shown) [Example 44, Ethyl {2-[({[(4-chlorophenyl)amino]carbonyl}amino)methyl]morpholin-4-yl}(phenyl)acetate], the IC50 in assay [2] was 10500 nM.
On the same count and under the same terms, the same measure for `O=C(NCc1ccc(Cl)cc1)NCC1CN(Cc2ccc(Cl)c(Cl)c2)CCO1` (stereo not shown) [Example 47, N-(4-Chlorobenzyl)-N′-{[4-(3,4-dichlorobenzyl)morpholin-2-yl]methyl}urea]: 66.1 nM.
Take `O=C(NCc1cccc(Cl)c1)NCC1CN(Cc2ccc(Cl)c(Cl)c2)CCO1` (stereo not shown) [Example 48, N-(3-Chlorobenzyl)-N′-{[4-(3,4-dichlorobenzyl)morpholin-2-yl]methyl}urea]: the Ki in assay [1] was 38.9 nM.
As for `CC(=O)Nc1cccc(CNC(=O)NCC2CN(Cc3ccc(Cl)c(Cl)c3)CCO2)c1` (stereo not shown) [Example 52, N-[3-({[({[4-(3,4-Dichlorobenzyl)morpholin-2-yl]methyl}amino)carbonyl]amino}methyl)phenyl]acetamide Formate], in assay [2], the IC50 was 1.78 nM.
`NC(=O)c1ccc(CNC(=O)NC[C@H]2CN(Cc3ccc(Cl)c(Cl)c3)CCO2)cc1` [Example 54, 4-({[({[(2S)-4-(3,4-Dichlorobenzyl)morpholin-2-yl]methyl}amino)carbonyl]amino}methyl)benzamide]: the IC50 in assay [2] is 11 nM. Also, the Ki in assay [1] was 15.8 nM.
With `C#CCNC(=O)NC[C@H]1CN(Cc2ccc(Cl)c(Cl)c2)CCO1` [Example 57, N-{[(2S)-4-(3,4-Dichlorobenzyl)morpholin-2-yl]methyl}-N′-prop-2-ynylurea], the Ki in assay [1] was 9.77 nM.
On to `Cn1nnc(CNC(=O)NC[C@H]2CN(Cc3ccc(Cl)c(Cl)c3)CCO2)n1` [Example 136, N-{[(2S)-4-(3,4-dichlorobenzyl)morpholin-2-yl]methyl}-N′-[(2-methyl-2H-tetraazol-5-yl)methyl]urea], for which, in assay [2], the IC50 is 15.8 nM. For the same molecule, the Ki in assay [1] is 5.01 nM.
The like results for `CNC(=O)c1ccc(CNC(=O)NC[C@H]2CN(Cc3ccc(Cl)c(Cl)c3)CCO2)cc1` [Example 149, 4-({[({[(2S)-4-(3,4-dichlorobenzyl)morpholin-2-yl]methyl}amino)carbonyl]amino}methyl)-N-methylbenzamide] were, in that order, 15.8 nM and 15.8 nM.
